Data from patent US8629328B2 (Monsanto Technology LLC, priority 2006, dated 2014).
Where “and” joins values, the source holds several entries; their conditions need not be identical. Identical values can stand only once. Like-named read-outs stand apart in the source and are kept apart here.

Tested on: soybean plants containing DMO-encoding polynucleotide construct (Events 1-5)
Source text: Non-transgenic and transgenic soybean seeds were planted around the beginning of the growing season at the time of optimum growth conditions depending on soil moisture, temperature, and seeding depth. […] The design details were as follows: 6 locations, 2 replications/location, 2 rows/plot, row length 12 feet (+3 ft alley), 9 seeds/foot, 108 seeds/row, 5 events (Events 1-4 and a fifth event that was segregating); and 4 treatments as shown below in Table 5. In all 240 plots were planted at 6 locations (40 per location).
Four non-transgenic border rows were planted all around the trial using a known commercial line such as A3525. Optimum production and management practices known in the art were followed. […] The field was irrigated as needed according to standard practices.
Seed planting and pre-emergence treatment were carried out approximately one-month apart in late spring in Monmouth, Ill.

[1] = Event 1, Post at V3: 1.5 lb/acre 4 weeks after planting
[2] = Event 1, Pre & Post: 1.5 lb/acre at planting and 1.5 lb/acre 4 weeks after planting
[3] = Event 1, Pre at sowing: 1.5 lb/acre at planting
[4] = Event 2, Post at V3: 1.5 lb/acre 4 weeks after planting
[5] = Event 2, Pre & Post: 1.5 lb/acre at planting and 1.5 lb/acre 4 weeks after planting
[6] = Event 2, Pre at sowing: 1.5 lb/acre at planting
[7] = Event 3, Post at V3: 1.5 lb/acre 4 weeks after planting
[8] = Event 3, Pre & Post: 1.5 lb/acre at planting and 1.5 lb/acre 4 weeks after planting
[9] = Event 3, Pre at sowing: 1.5 lb/acre at planting
[10] = Event 4, Post at V3: 1.5 lb/acre 4 weeks after planting
[11] = Event 4, Pre & Post: 1.5 lb/acre at planting and 1.5 lb/acre 4 weeks after planting
[12] = Event 4, Pre at sowing: 1.5 lb/acre at planting
[13] = Event 5 (segregating), Post at V3: 1.5 lb/acre 4 weeks after planting
[14] = Event 5 (segregating), Pre & Post: 1.5 lb/acre at planting and 1.5 lb/acre 4 weeks after planting
[15] = Event 5 (segregating), Pre at sowing: 1.5 lb/acre at planting

COc1c(Cl)ccc(Cl)c1C(=O)O [dicamba, 3,6-dichloro-o-anisic acid]
8% and 3%: % GR 6/27 [11]
15% and 8%: % Inj 6/13 [15]
0: Dead or Stunted [3] | Dead or Stunted [5] | Dead or Stunted [6] | Dead or Stunted [7] | Dead or Stunted [8] | Dead or Stunted [9] | Dead or Stunted [10] | Dead or Stunted [11] | Dead or Stunted [12]
10%: % Inj 6/20 [14]
4% and 2%: % Inj 6/13 [9]
1% and 2%: % Inj 6/27 [3] | % Inj 6/27 [5]
0% and 5%: % GR 6/27 [13]
0% and 1%: % Inj 6/13 [11]
5% and 2%: % Inj 6/27 [6] | % Inj 6/27 [12] | % Inj 6/27 [15]
0% and 3%: % GR 6/27 [2] | % Inj 7/5 [7] | % Inj 7/5 [9]
3% and 5%: % Inj 6/27 [7]
7% and 5%: % Inj 6/27 [13]
5% and 0%: % GR 6/27 [14]
3% and 1%: % Inj 6/27 [14]
5%: % Inj 6/27 [2]
3%: % Inj 6/27 [4] | % Inj 6/27 [8] | % Inj 6/27 [10] | % Inj 6/27 [11]
no or very little injury: injury in field, overall (pre- and post-emergence applications of dicamba, all transgenic soybean plants)
3% and 4%: % Inj 6/13 [12]
15% and 10%: % Inj 6/13 [14] | % Inj 6/20 [15]
23 and 20: Dead or Stunted [14]
5% and 7%: % Inj 6/27 [1]
15: Dead or Stunted [13]
2%: % Inj 7/5 [13]
3% and 0%: % GR 6/27 [7]
0% and 2%: % Inj 6/13 [2] | % Inj 6/20 [2] | % Inj 6/13 [3] | % Inj 7/5 [4] | % Inj 6/13 [8]
24 and 14: Dead or Stunted [15]
2% and 0%: % Inj 7/5 [5] | % Inj 7/5 [8] | % GR 7/5 [11] | % Inj 7/5 [11]
0%: % GR 6/27 [1] | % GR 7/5 [1] | % Inj 6/7 [1] | % Inj 6/13 [1] | % Inj 6/20 [1] | % Inj 7/5 [1] | % GR 7/5 [2] | % Inj 6/7 [2] | % Inj 7/5 [2] | % GR 6/27 [3] | % GR 7/5 [3] | % Inj 6/7 [3] | % Inj 6/20 [3] | % Inj 7/5 [3] | % GR 6/27 [4] | % GR 7/5 [4] | % Inj 6/7 [4] | % Inj 6/13 [4] | % Inj 6/20 [4] | % GR 6/27 [5] | % GR 7/5 [5] | % Inj 6/7 [5] | % Inj 6/13 [5] | % Inj 6/20 [5] | % GR 6/27 [6] | % GR 7/5 [6] | % Inj 6/7 [6] | % Inj 6/13 [6] | % Inj 6/20 [6] | % Inj 7/5 [6] | % GR 7/5 [7] | % Inj 6/7 [7] | % Inj 6/13 [7] | % Inj 6/20 [7] | % GR 6/27 [8] | % GR 7/5 [8] | % Inj 6/7 [8] | % Inj 6/20 [8] | % GR 6/27 [9] | % GR 7/5 [9] | % Inj 6/7 [9] | % Inj 6/20 [9] | % GR 6/27 [10] | % GR 7/5 [10] | % Inj 6/7 [10] | % Inj 6/13 [10] | % Inj 6/20 [10] | % Inj 7/5 [10] | % Inj 6/7 [11] | % Inj 6/20 [11] | % GR 6/27 [12] | % GR 7/5 [12] | % Inj 6/7 [12] | % Inj 6/20 [12] | % Inj 7/5 [12] | % GR 7/5 [13] | % Inj 6/7 [13] | % Inj 6/13 [13] | % Inj 6/20 [13] | % GR 7/5 [14] | % Inj 6/7 [14] | % Inj 7/5 [14] | % GR 6/27 [15] | % GR 7/5 [15] | % Inj 6/7 [15] | % Inj 7/5 [15]
